Tests used:
Assay type in all cases: in vivo, mice (Std-ddY strain)
[1] = tested on: scopolamine-induced hypermotility; assay: Antagonistic effect on scopolamine-induced hypermotility; conditions: Mus musculus, po, orally, scopolamine hydrobromide 1 mg/kg i.p., complete antagonism to motility level of non-dosed animals=100%, read-out: Inhibitory ratio (% antagonism of scopolamine-induced hypermotility)
Procedure: Antagonistic effect on scopolamine-induced hypermotility:
A test compound was orally administered to each mouse, and 90 minutes after the administration, each one test animal was placed within a test cage (25×35×30 cm). After 30 minutes, scopolamine hydrobromide (1 mg/kg) was intraperitoneally administered to the mice and then the motility was measured with Animex activity meter for 30 minutes. The effect of test compounds was expressed as % antagonism (complete antagonism to the motility level of non-dosed animals=100%).

[2] = tested on: reserpine-induced hypothermia; assay: Anti-reserpine effect (reserpine-induced hypothermia); conditions: 100 mg/kg orally; reserpine 5 mg/kg s.c.; rectal temperature at 4 hours; complete inhibition=100%
Procedure: A group of 5 male mice (Std-ddY strain, 22-25 g) was used for examining the antagonistic effect of the test compounds on reserpine-induced hypothermia, which is known as a screening method for the antidepressant drug.
Reserpine (5 mg/kg) was subcutaneously administered to the mice and further a test compound was orally administered thereto. Four hours after the administration, rectal temperature of the mice was measured. The effect of the test compounds was estimated by % inhibition (complete inhibition to the hypothermia by reserpine in non-dosed animals=100%).

[3] = tested on: brain serotonin metabolite, 5-hydroxyindole-3-acetic acid (5-HIAA); assay: Increasing effect on concentration of brain serotonin metabolite (5-HIAA); conditions: Mus musculus, 2 h, two hours after treatment, 5-HIAA level of non-dosed animals=100%
Excerpt: Increasing effect on concentration of brain serotonin metabolite:
A group of 5 male mice (Std-ddY strain, 25-30 g) was used for examining effect of the test compounds on concentration of a brain serotonin metabolite, 5-hydroxyindole-3-acetic acid (5-HIAA).
Mice were killed by decapitation two hours after the treatment with the test compounds. Brains were quickly taken out, homogenized in 1N formic acid-acetone solution, and centrifuged in a refrigerated ultracentrifuge. The supernatant was evaporated by blowing with N2 gas, and then, the residue was again dissolved in 0.01N acetic acid, and served for determining 5-HIAA concentration by high performance liquid chromatography with electrochemical detection. The effect of the test compounds on 5-HIAA concentration was shown as % of control (5-HIAA level of non-dosed animals=100%).

[4] = tested on: scopolamine-induced deficit of spontaneous alternation behavior; assay: Improving effect on scopolamine-induced deficit of spontaneous alternation behavior (T-maze); conditions: scopolamine hydrobromide 1 mg/kg, non-dosed mice=100%
Excerpt: Improving effect on scopolamine-induced deficit of spontaneous alternation behavior:
A group of 15-25 male mice (Std-ddY strain, 22-28 g) was used for evaluating effect of the test compounds on scopolamine-induced deficit of spontaneous alternation in a T-maze, which is a known animal model of memory impairment due to hypofunction of the cholinergic nervous system. The T-maze used consists of a stem and two arms which are 25 cm long, 5 cm wide and 10 cm high. The first 10 cm of the stem and last 10 cm of each arm are divided by sliding doors into start and goal boxes.
A test compound and scopolamine hydrobromide (1 mg/kg) were intraperitoneally administered to each mouse, and after 30 minutes a test of spontaneous alternation task in the T-maze was continuously repeated for 8 trials. Commonly, naive mice alternate each (right and left) goal box in turn, but scopolamine-treated animals tend to enter the same goal box repeatedly. The effect of the test compounds was expressed as % improvement (complete improvement to the alternation level of non-dosed mice=100%).

[5] = tested on: cycloheximide-induced amnesia of passive avoidance response; assay: Improving effect on cycloheximide-induced amnesia of passive avoidance response; conditions: cycloheximide 60 mg/kg s.c., retention trial at 24 hours, non-dosed animals=100%
Excerpt: Improving effect on cycloheximide-induced amnesia of passive avoidance response:
Anti-amnesic effect of the test compounds was examined using mice given cycloheximide which is a known amnesia-inducing agent.
A group of 15-20 male mice (Std-ddY strain, 27-33 g) was subjected to training and retention trials for a passive avoidance task in a step-down apparatus (30×30×50 cm) with a grid floor and a wooden platform (4×4×4 cm) in a center of the floor. In the training trial, each mouse was first placed on the platform, and when the mouse stepped down on the grid floor, an electric shock (1 Hz, 0.5 sec, 60 VDC) was delivered to the feet for 15 seconds. Immediately after the training trial, cycloheximide (60 mg/kg, s.c.) and a test compound (i.p.) were administered. The retention trial was carried out 24 hours thereafter, and the time from placing again each mouse on the platform until stepping down on the grid floor (step-down latency) was measured. The step-down latency in the retention trial was markedly shortened by treatment of cycloheximide (amnesia). The effect of test compounds was assessed by % improvement (complete improvement to the latency level of non-dosed animals=100%).

SMILES | inhibition in vivo at 30 mg/kg [1] | other results
CCN1CCN(c2nc3c(c(-c4ccccc4)n2)CCCC3)CC1 [Ex. 26] | 59.6% | Inhibitory ratio (% inhibition of reserpine-induced hypothermia) [2]: 100%
CCN1CCN(c2nc3c(c(-c4ccc(OC)cc4)n2)CCC3)CC1 [Ex. 24] | 72.5% | 
CCN1CCN(c2nc3c(c(-c4ccccc4)n2)CCCCC3)CC1 [Ex. 16] | 54.2% | 
Fc1ccc(-c2nc(N3CCN(c4ccccc4)CC3)nc3c2CCC3)cc1 [Ex. 20] | 35.2% | 
CC1CCc2nc(N3CCNCC3)nc(-c3ccc(F)cc3)c2C1 (stereo not shown) [Ex. 40] | 64.5% | 
CCN1CCN(c2nc3c(c(-c4ccc(F)cc4)n2)CCC3)CC1 [Ex. 5] | 81.4% | response vs control in vivo at 100 mg/kg [3]: 161%
CCN1CCN(c2nc3c(c(-c4ccc(F)cc4)n2)CC(C)CC3)CC1 (stereo not shown) [Ex. 42] | 71% | 
Fc1ccc(-c2nc(N3CCN(Cc4ccccc4)CC3)nc3c2CCC3)cc1 [Ex. 19] |  | inhibition in vivo at 3 mg/kg [1]: 64.4%
CCN1CCN(c2nc3c(c(-c4ccc(Cl)cc4)n2)CCCC3)CC1 [Ex. 33] | 42.3% | 
c1ccc(CN2CCN(c3nc4c(c(-c5ccccc5)n3)CCCCC4)CC2)cc1 [Ex. 37] | 62.9% | 
CN1CCN(c2nc3c(c(-c4ccc(Cl)cc4)n2)CCCC3)CC1 [Ex. 32] | 62.6% | 
Fc1ccc(-c2nc(N3CCN(c4ccccn4)CC3)nc3c2CCC3)cc1 [Ex. 39] | 55.6% | 
Fc1ccc(-c2nc(N3CCN(Cc4ccccc4)CC3)nc3c2CCCC3)cc1 [Ex. 31] |  | inhibition in vivo at 10 mg/kg [1]: 61.1%
Fc1ccc(-c2nc(N3CCN(Cc4ccccc4)CC3)nc3c2CCCCC3)cc1 [Ex. 38] | 81.6% | 
OCCN1CCN(c2nc3c(c(-c4ccc(F)cc4)n2)CCC3)CC1 [Ex. 6] | 64.5% | response vs control in vivo at 100 mg/kg [3]: 119%
CC1CCc2nc(N3CCN(C)CC3)nc(-c3ccc(F)cc3)c2C1 (stereo not shown) [Ex. 41] | 60.8% | 
Fc1ccc(-c2nc(N3CCNCC3)nc3c2CCCC3)cc1 [Ex. 14, 2-(1-piperazinyl)-4-(4-fluoro-phenyl)-5,6,7,8-tetrahydroquinazoline] |  | Improvement of scopolamine-induced deficit of spontaneous alternation ([4]; 1.0 mg/kg i.p.): 40.7%; inhibition in vivo at 3 mg/kg [1]: 55.2%; Inhibitory ratio (% inhibition of reserpine-induced hypothermia) [2]: 100%; Improvement of cycloheximide-induced amnesia (step-down latency) ([5]; 2.0 mg/kg i.p.): 52.5%; response vs control in vivo at 100 mg/kg [3]: 154%

SMILES | inhibition in vivo at 30 mg/kg [1] | other results
c1ccc(CN2CCN(c3nc4c(c(-c5ccccc5)n3)CCC4)CC2)cc1 [Ex. 18] | 54.4% | 
COc1ccc(-c2nc(N3CCN(C)CC3)nc3c2CCC3)cc1 [Ex. 23] | 52.4% | 
OCCN1CCN(c2nc3c(c(-c4ccccc4)n2)CCCC3)CC1 [Ex. 27] | 42% | Inhibitory ratio (% inhibition of reserpine-induced hypothermia) [2]: 46%; response vs control in vivo at 100 mg/kg [3]: 131%
CCN1CCN(c2nc3c(c(-c4ccccc4)n2)CCCCCC3)CC1 [Ex. 17] | 72.5% | 
O=C(CCCN1CCN(c2nc3c(c(-c4ccc(F)cc4)n2)CCC3)CC1)c1ccc(F)cc1 [Ex. 46, 2-[4-[3-(4-fluorobenzoyl)propyl]-1-piperazinyl]-4-(4-fluorophenyl)-6,7-dihydro-5H-cyclopentapyrimidine] | 100% | 
CCCN1CCN(c2nc3c(c(-c4ccc(F)cc4)n2)CCC3)CC1 [Ex. 13, 2-(4-n-propyl-1-piperazinyl)-4-(4-fluorophenyl)-6,7-dihydro-5H-cyclopentapyrimidine] | 97.6% | 
CN1CCN(c2nc3c(c(-c4ccccc4)n2)CCCC3)CC1 [Ex. 25] |  | inhibition in vivo at 10 mg/kg [1]: 67.2%; Inhibitory ratio (% inhibition of reserpine-induced hypothermia) [2]: 63%; response vs control in vivo at 100 mg/kg [3]: 142%
O=C(c1ccco1)N1CCN(c2nc3c(c(-c4ccc(F)cc4)n2)CCC3)CC1 [Ex. 45, 2-[4-(2-furoyl)-1-piperazinyl]-4-(4-fluorophenyl)-6,7-dihydro-5H-cyclopentapyrimidine] | 60.4% | 
CN1CCN(c2nc3c(c(-c4cccc(F)c4)n2)CCC3)CC1 [Ex. 21] | 70.5% | 
Fc1ccc(-c2nc(N3CCN(C4CCCC4)CC3)nc3c2CCC3)cc1 [Ex. 12] | 80.9% | 
c1ccc(-c2nc(N3CCNCC3)nc3c2CCC3)cc1 [Ex. 3, 2-(1-Piperazinyl)-4-phenyl-6,7-dihydro-5H-cyclopentapyrimidine] |  | Improvement of scopolamine-induced deficit of spontaneous alternation ([4]; 2.0 mg/kg i.p.): 45.8%; inhibition in vivo at 3 mg/kg [1]: 68%; Improvement of cycloheximide-induced amnesia (step-down latency) ([5]; 0.5 mg/kg i.p.): 34.4%; Improvement of cycloheximide-induced amnesia (step-down latency) ([5]; 10.0 mg/kg i.p.): 52.1%
CC1CCc2nc(N3CCN(CCO)CC3)nc(-c3ccc(F)cc3)c2C1 (stereo not shown) [Ex. 43] | 64.2% | 
CCN1CCN(c2nc3c(c(-c4ccc(F)cc4)n2)CCCCC3)CC1 [Ex. 8] |  | inhibition in vivo at 10 mg/kg [1]: 80%
CN1CCN(c2nc3c(c(-c4ccc(F)cc4)n2)CCC3)CC1 [Ex. 4] |  | inhibition in vivo at 10 mg/kg [1]: 66%; response vs control in vivo at 100 mg/kg [3]: 122%
OCCN1CCN(c2nc3c(c(-c4ccc(F)cc4)n2)CCCC3)CC1 [Ex. 30] | 75.7% | Inhibitory ratio (% inhibition of reserpine-induced hypothermia) [2]: 67%; response vs control in vivo at 100 mg/kg [3]: 137%
OCCN1CCN(c2nc3c(c(-c4ccc(Cl)cc4)n2)CCCC3)CC1 [Ex. 34] | 50.2% | 
CCN1CCN(c2nc3c(c(-c4ccc(F)cc4)n2)CCCC3)CC1 [Ex. 29] | 59.1% | response vs control in vivo at 100 mg/kg [3]: 149%

— patent US5185338A, “Medicament for treating cerebral insufficiency diseases, novel 2-(1-piperazinyl)-4-phenylcycloalkanopyrimidine derivatives, and process for the production thereof” (Dainippon Pharmaceutical Co., Ltd., priority 1989, dated 1993)
